Data reported in patent publication US11147854B2, “Peptides having immunomodulatory properties” (Riptide Bioscience, Inc., priority 2018, dated 2021).

Tests used:
[1] = tested on: macrophages from scleroderma patients; assay: Viability of peripheral blood derived macrophages from scleroderma patients (PrestoBlue assay); assay type: cell-based, human; settings: for macrophage viability: scleroderma (SSc) patient with raised arginase:IFNg ratio of 8.8, even at 0.01 uM, 96 hours, PrestoBlue; for effect on scleroderma macrophage samples (high arginase:IFNg) versus healthy control samples (low arginase:IFNg) (FIG. 4A-4B): FIG. 4B versus FIG. 4A; for viability of macrophages (FIG. 3): samples from human scleroderma patients, 96 hours incubation, various concentrations
Protocol: (§1) Peripheral blood derived macrophages were cultured from healthy volunteers and scleroderma patients and cultured in MCS-F for 7 days prior to qPCR for arginasel (M2 marker) or IFNg (M1 marker), followed by treatment with RP peptides at a range of doses 0-100 uM. After 48 hours media were exchanged and cells were retreated with the peptides. After 96 hours cell viability was assayed by PrestoBlue assay. (FIG. 4A) Macrophages from a healthy control with low arginase:IFNg ratio of 3.6, were resistant to the effects of RP peptides of interest (RP182, RP185, RP832C, RP837) on viability.

CT26 Xenograft = assay: Mouse tumor inhibition model with and without anti-PD1 antibody (FIG. 2); assay type: in vivo; settings: peptide 10 mg/kg qd
Protocol: The peptides RP832C and RP185 were administered at 10 mg/kg qd. The anti-PD1 antibody was administered intraperitoneally at 200 ug twice per week.

[2] = tested on: macrophages from healthy controls; assay: Viability of peripheral blood derived macrophages from healthy volunteers (PrestoBlue assay); assay type: cell-based, human; settings: healthy control with low arginase:IFNg ratio of 3.6, peptides 0-100 uM, 96 hours
Protocol: as §1

Q: Which macrophage viability [1] does the source give for FFKKFFKKFK [RP185] here?
A: greatly reduced viability

Q: And the tumor volume (CT26 Xenograft)?
A: reduce tumor volume

Q: And the macrophage viability [2]?
A: resistant

Q: RWKFGGFKWR [RP832C] was tested. Which “effect on scleroderma macrophage samples (high arginase:IFNg) versus healthy control samples (low arginase:IFNg) (FIG. 4A-4B)” value [1] did it give?
A: selective effect

Q: And the “viability of macrophages (FIG. 3)” value [1]?
A: reduce viability

Q: And the macrophage viability [1]?
A: greatly reduced viability

Q: And the tumor volume (CT26 Xenograft)?
A: reduce tumor volume

Q: And the macrophage viability [2]?
A: resistant

Q: Which results are given for FWKRFVRKWR [RP837]?
A: effect on scleroderma macrophage samples (high arginase:IFNg) versus healthy control samples (low arginase:IFNg) (FIG. 4A-4B) [1]: selective effect; viability of macrophages (FIG. 3) [1]: reduce viability; macrophage viability [1]: greatly reduced viability; macrophage viability [2]: resistant

Q: For KFRKAFKRFF [RP182], which macrophage viability [1] is on record?
A: greatly reduced viability

Q: And the macrophage viability [2]?
A: resistant
